14 molecules from PubChem BioAssay (NCI) can be followed below.

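All cell lines were grown in 96-well plates and treated with compound for 48 hours. GI50 marks 50% less growth. TGI: total growth inhibition.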

What all share (assay): NCI anticancer screen, dose series, 48 h
Test [1] relates to SN12C renal.
The subject of test [2] is HCT-15 colon.
Test [3] concerns IGROV1 ovarian.
Test [4] has as its system NCI-H226 lung.
Test [5] relates to SNB-75 CNS.
In test [6] the test system is SK-MEL-2 melanoma.
Test [7] has as its system ACHN renal.
The test system of test [8] is COLO 205 colon.
The subject of test [9] is NCI-H460 lung.

On to `CCCC1(CC(=O)O)OCCc2c1[nH]c1ccccc21` (stereo unspecified), for which the TGI in [1], in test [2], in test [3], in [4], in test [5] and in test [6] was above 100 µM throughout. Also, the TGI in [7] and in [8] was above 100 µM in each case.
With `COC(=O)C(=O)CC(=O)CCn1[nH]c(=O)c(Cl)c(Cl)c1=O`, the TGI in test [1], in [2], in [3], in test [9], in [4] and in test [5] was above 100 µM in each case. For the same molecule, the TGI in [6], in [7] and in [8] was above 100 µM each time.
Turning to `CN(C)Cc1cc(C(F)(F)F)ccc1C(O)(c1ccccc1)c1ccccc1`, the TGI amounted to 29.3 µM in test [1]; 28.6 µM in test [2]; 30.9 µM in test [3]; 28.1 µM in test [9]; 31.1 µM in test [4]; 21.8 µM in test [5]. In addition, the TGI in [6] worked out at 41 µM; in test [7], 29.9 µM; in test [8], 20.8 µM.
`COc1cc(NS(=O)(=O)c2ccc(C)cc2)c2nccnc2c1`: the TGI is above 100 µM in [1]; above 100 µM in test [2]; above 100 µM in test [3]; above 100 µM in test [9]; above 100 µM in test [4]; 78.1 µM in test [5]. Further, the TGI is 54.5 µM in [6], 80.8 µM in test [7] and 90.1 µM in test [8].
For the molecule `N#C/C(=C/c1cccc(Oc2ccccc2)c1)c1ccccc1`, the TGI in test [1], in [2], in test [3], in test [9], in test [4] and in test [5] was above 100 µM in each case. Besides, the TGI in [6], in [7] and in [8] was above 100 µM each time.
Take `CCC[CH2][Sn]([CH2]CCC)([O]C(=O)CN)[O]C(=O)CN`: the GI50 was 57.2 µM in test [1]; 26.9 µM in [2]; above 100 µM in test [3]; above 100 µM in test [9]; above 100 µM in [4]; 29.6 µM in [5]. Further, the GI50 in [6] was 18.5 µM; in test [7], 48.1 µM; in test [8], 42.9 µM. The TGI in [1] was above 100 µM; in test [2], 63.6 µM; in test [3], above 100 µM; in [9], above 100 µM; in [4], above 100 µM; in [5], above 100 µM. Besides, the TGI in [6] was 48.8 µM; in test [7], above 100 µM; in [8], above 100 µM.
In the case of `C[C@]12CC=CC(=O)[C@@]1(C)CCC(=O)C2`, the TGI in [1], in test [3], in [9], in test [4], in [5] and in test [6] was above 100 µM each time. The TGI in test [7] is above 100 µM.
With `Cc1ccc(S(=O)(=O)OC2CC=CC2)cc1`, the TGI in [1], in test [2], in test [3], in test [9], in test [4] and in test [5] was above 100 µM in each case. In addition, the TGI in test [6], in test [7] and in test [8] was above 100 µM throughout.
Consider `Cc1ccc(S(=O)(=O)N/N=C2\CCCCC23CCC(=O)NC3)cc1` (stereo unspecified), for which the TGI in test [1], in [2], in test [3], in [9], in [4] and in [5] was above 100 µM in each case. In addition, the TGI in [6], in [7] and in test [8] was above 100 µM each time.
As to `CC(=O)C1C(c2ccccc2)C2(C)OC(=O)C(C#N)C12C` (stereo unspecified), the TGI in test [1], in test [2], in test [3], in [9], in [4] and in test [5] was above 100 µM in each case. Further, the TGI in [6], in test [7] and in test [8] was above 100 µM each time.
For the molecule `CCCCCCCCCCCCCP(=O)(O)O`, the TGI in test [1], in test [2], in test [3], in [9], in test [4] and in test [5] was above 100 µM throughout. The TGI in test [6], in test [7] and in [8] was above 100 µM in each case.
In the case of `NC1=NN(c2ccccc2)C(=O)C1C(=O)CCC(=O)Nc1cccc(Cl)c1` (stereo unspecified), the TGI in test [1], in test [2], in test [3], in test [9], in test [4] and in test [5] was above 100 µM throughout. For the same molecule, the TGI in [6], in test [7] and in [8] was above 100 µM throughout.
With `COc1ccc2nc3cc(Cl)ccc3c(Sc3ccc([N+](=O)[O-])cc3C)c2c1`, the TGI in test [1], in test [2], in test [3], in test [9], in test [4] and in [5] was above 100 µM each time. The values for the TGI in test [6], in test [7] and in [8] were above 100 µM, above 100 µM and 46.1 µM, respectively.
Regarding `O=C1N/C(=C\[N+](=O)[O-])c2ccccc21`, the TGI in test [1] was above 100 µM; in test [2], above 100 µM; in test [3] it was above 100 µM; in test [9] it was above 100 µM; in test [4], above 100 µM; in test [5] it was 93.3 µM. Further, the TGI in test [7] and in test [8] was above 100 µM in each case.
